Assay results taken from PubChem BioAssay (NCI).
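Results reflect a 48-hour exposure of cells in 96-well plates to compound at five concentrations. At the GI50, growth is halved. The concentration for full growth arrest is given as TGI.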

Experiments:
Experiment in all cases: NCI tumour cell line growth inhibition, 48 h
A549 NSCLC = system: A549 NSCLC
LXFL 529 NSCLC = system: LXFL 529 NSCLC
TK-10 renal = system: TK-10 renal
XF 498 CNS = system: XF 498 CNS
MDA-MB-231 breast = system: MDA-MB-231 breast
MDA-MB-435 = system: MDA-MB-435
PC-3 prostate = system: PC-3 prostate
T-47D breast = system: T-47D breast
DLD-1 colon = system: DLD-1 colon
HOP-18 NSCLC = system: HOP-18 NSCLC
P388 leukemia = system: P388 leukemia
SN12K1 renal = system: SN12K1 renal
SNB-78 CNS = system: SNB-78 CNS
P388/ADR leukemia = system: P388/ADR leukemia

## O=C(NN1C(=O)C(Cl)C1c1ccc([N+](=O)[O-])cc1)c1ccccc1O (stereo not given)
A549 NSCLC
  TGI: > 100 µM
LXFL 529 NSCLC
  TGI: > 100 µM
TK-10 renal
  TGI: > 100 µM
XF 498 CNS
  TGI: > 100 µM

## CC(=O)O[C@H]1CC[C@H]2[C@@H]3CC[C@H]4Nc5c(cnn5S(C)(=O)=O)C[C@]4(C)[C@H]3CC[C@]12C
MDA-MB-231 breast
  TGI: > 100 µM
MDA-MB-435
  TGI: > 100 µM
PC-3 prostate
  TGI: > 100 µM
T-47D breast
  TGI: > 100 µM

## N/C(=N\N=C/c1cc(Cl)cc(Cl)c1O)NO
A549 NSCLC
  TGI: 36.5 µM
DLD-1 colon
  TGI: > 100 µM
HOP-18 NSCLC
  TGI: > 100 µM
P388 leukemia
  TGI: 1.49 µM
SN12K1 renal
  TGI: 6.93 µM
SNB-78 CNS
  TGI: > 100 µM
XF 498 CNS
  TGI: 6.45 µM

## CCOC(=O)C1CCn2c(nc3c(=O)n(C)c(=O)n(C)c32)S1 (stereo not given)
A549 NSCLC
  TGI: > 100 µM
DLD-1 colon
  TGI: > 100 µM
HOP-18 NSCLC
  TGI: > 100 µM
LXFL 529 NSCLC
  TGI: > 100 µM
SNB-78 CNS
  TGI: > 100 µM
TK-10 renal
  TGI: > 100 µM

## Cn1nc2ccc3nccc(NCCNCCCl)c3c2n1
A549 NSCLC
  TGI: > 100 µM
DLD-1 colon
  TGI: > 100 µM
LXFL 529 NSCLC
  TGI: > 100 µM
TK-10 renal
  TGI: > 100 µM
XF 498 CNS
  TGI: > 100 µM

## CCNC(=O)CCCCC(=O)c1c(C)[nH]c(/C=C2\N=C(c3ccc[nH]3)C=C2OC)c1C
A549 NSCLC
  GI50: 4.72 µM
  TGI: 21.4 µM
MDA-MB-231 breast
  GI50: 2.04 µM
  TGI: 4.32 µM
MDA-MB-435
  GI50: 2.77 µM
  TGI: 7.74 µM
PC-3 prostate
  GI50: 1.63 µM
  TGI: 5.8 µM
T-47D breast
  GI50: 2.68 µM
  TGI: 6.43 µM
TK-10 renal
  GI50: 2.37 µM
  TGI: 5.37 µM

## COC(=O)C[C@](O)(CCC(C)(C)O)C(=O)O[C@@H]1C(OC)=C[C@]23CCCN2CCc2cc4c(cc2[C@H]13)OCO4
A549 NSCLC
  TGI: 0.45 µM
HOP-18 NSCLC
  TGI: 0.756 µM
P388 leukemia
  TGI: 0.133 µM
P388/ADR leukemia
  TGI: > 100 µM
SN12K1 renal
  TGI: 0.359 µM
SNB-78 CNS
  TGI: 1.04 µM

## O=C(/C=C/c1ccsc1)c1ccc(Cl)s1
A549 NSCLC
  TGI: > 100 µM
MDA-MB-231 breast
  TGI: > 100 µM
MDA-MB-435
  TGI: 79.9 µM
PC-3 prostate
  TGI: > 100 µM
T-47D breast
  TGI: > 100 µM
TK-10 renal
  TGI: > 100 µM

## CC1=NN(C(=O)c2ccccc2)C(=O)C1N=Nc1ccccc1C(=O)O (stereo not given)
A549 NSCLC
  TGI: > 100 µM
DLD-1 colon
  TGI: > 100 µM
HOP-18 NSCLC
  TGI: > 100 µM
P388 leukemia
  TGI: > 46.3 µM
P388/ADR leukemia
  TGI: > 44.7 µM
SN12K1 renal
  TGI: > 100 µM
XF 498 CNS
  TGI: 69.9 µM

## CCOC(=O)CCc1c(C)c2c(O)cc(O)cc2oc1=O
A549 NSCLC
  TGI: > 100 µM
DLD-1 colon
  TGI: > 100 µM
HOP-18 NSCLC
  TGI: > 100 µM
P388 leukemia
  TGI: > 100 µM
P388/ADR leukemia
  TGI: > 100 µM
SN12K1 renal
  TGI: > 100 µM
SNB-78 CNS
  TGI: > 100 µM
XF 498 CNS
  TGI: > 100 µM
